Tests used:
[1] = test system: CD8+ lymphocytes in peripheral blood mononuclear cells of a CMV-positive donor; assay type: cell-based
HLA-A2.1 = target: T1, HLA-A2.1 (Homo sapiens, UniProt P04439, D140Y/D185E/D98H/E176V/E277Q/G131W/G231S/I119V/I121R/I166T/I218V/N151K/N90K/P208A/P217A/Q86G/Q94H/R138H/R169H); assay type: binding
T1 construct: made in house

| Substance | staining of CD8+ T-cells by exchange-generated MHC tetramers [1] | recovery of UV-sensitive MHC multimer upon addition of peptide (HLA-A2.1) |
| --- | --- | --- |
| MART I 26-35 (A2L mutant) | do not show measurable binding | – |
| GP100 (614-622): HLA-A3-binding peptide, control not expected to interact with HLA-A2.1 (LIYRRRLMK) | – | does not lead to a substantial increase in the recovery |
| CMV pp65 495-503: CMV pp65 495-503 epitope peptide (NLVPMVATV; UniProt P06725 495-503, looked up, fragment) | detect CMV-specific T-cells at an equal frequency and with similar intensity as conventional CMV pp65 495-503-specific MHC tetramers | – |
| HY 311-319: HLA-A2.1-binding peptide (FIDSYICQV) | do not show measurable binding | highly increased recovery |

From patent US9850287B2, “Means and methods for breaking noncovalent binding interactions between molecules” (Het Nederlands Kanker Instituut, priority 2005, dated 2017)
